Numbers after ± are expanded uncertainties.
Conditions: Crystal, Calculated from knudsen effusion weight loss

CC(C)(C)c1ccc2c(c1)-c1nc-2nc2[n-]c(nc3nc(nc4[n-]c(n1)c1ccc(C(C)(C)C)cc41)-c1ccc(C(C)(C)C)cc1-3)c1ccc(C(C)(C)C)cc21.[Cu+2] [copper tetra-4-tert-butylphthalocyanine]
Conditions	vapor or sublimation pressure [kPa]
587 K	4.737e-06 ± 3.3e-06
604 K	1.852e-05 ± 6.8e-06
620 K	5.892e-05 ± 1.7e-05
640 K	0.0001549 ± 4.1e-05
656 K	0.0004 ± 8.6e-05
679 K	0.0008741 ± 0.00019
696 K	0.002084 ± 0.00039

Source: the NIST ThermoML archive (doi:10.1016/j.tca.2010.01.019)
